Values quoted from earlier work, collected in patent US5618841A, “Composition of iodophor teat dip for the prevention of mastitis and a process for using the same” (priority 1994, dated 1997).

What was measured:
microorganism = details: rank order
[1] = first ionization constant
[2] = 25° C.

| SMILES | relative antimicrobial strength, with respect to citric acid (microorganism) | pKa [1] | solubility in water [2] |
| --- | --- | --- | --- |
| O=C(O)CO [Glycolic acid] | Mandelic acid>Lactic acid>Glycolic acid>Malic acid>Citric acid |  |  |
| CC(O)C(=O)O (stereo not drawn) [Lactic acid] | Mandelic acid>Lactic acid>Glycolic acid>Malic acid>Citric acid |  |  |
| O=C(O)CC(O)C(=O)O (stereo not drawn) [Malic acid] | Mandelic acid>Lactic acid>Glycolic acid>Malic acid>Citric acid |  |  |
| O=C(O)C(O)c1ccccc1 (stereo not drawn) [Mandelic acid] | Mandelic acid>Lactic acid>Glycolic acid>Malic acid>Citric acid | 3.39 |  |
| II [elemental iodine] |  |  | 0.03% |
